Columns and labels:
Assay type in all cases: functional
[1] = tested on: Mus musculus; assay: In vivo antitumor activity against P-388 leukemia in CDF1 mice at 256 mg or 661 umol by ip administration expressed as median survival time of drug treated mice/median survival time of control mice x100
[2] = tested on: Mus musculus; assay: In vivo antitumor activity against P-388 leukemia in CDF1 mice at 32 mg or 83 umol by ip administration expressed as median survival time of drug treated mice/median survival time of control mice x100
[3] = tested on: Mus musculus; assay: In vivo antitumor activity against P-388 leukemia in CDF1 mice at 128 mg or 330 umol by ip administration expressed as median survival time of drug treated mice/median survival time of control mice x100
[4] = tested on: Mus musculus; assay: In vivo antitumor activity against P-388 leukemia in CDF1 mice at 16 mg or 41 umol by ip administration expressed as median survival time of drug treated mice/median survival time of control mice x100
[5] = tested on: Mus musculus; assay: In vivo antitumor activity against P-388 leukemia in CDF1 mice at 8 mg or 21 umol by ip administration expressed as average wt. change determined between day 0 and day 6 of experiment
[6] = tested on: Mus musculus; assay: In vivo antitumor activity against P-388 leukemia in CDF1 mice at 64 mg or 165 umol by ip administration expressed as average wt. change determined between day 0 and day 6 of experiment
[7] = tested on: Mus musculus; assay: In vivo antitumor activity against P-388 leukemia in CDF1 mice at 64 mg or 165 umol by ip administration expressed as median survival time of drug treated mice/median survival time of control mice x100
[8] = tested on: Mus musculus; assay: In vivo antitumor activity against P-388 leukemia in CDF1 mice at 128 mg or 330 umol by ip administration expressed as average wt. change determined between day 0 and day 6 of experiment
[9] = tested on: Mus musculus; assay: In vivo antitumor activity against P-388 leukemia in CDF1 mice at 32 mg or 83 umol by ip administration expressed as average wt. change determined between day 0 and day 6 of experiment
[10] = tested on: Mus musculus; assay: In vivo antitumor activity against P-388 leukemia in CDF1 mice at 256 mg or 661 umol by ip administration expressed as average wt. change determined between day 0 and day 6 of experiment
[11] = tested on: Mus musculus; assay: In vivo antitumor activity against P-388 leukemia in CDF1 mice at 8 mg or 21 umol by ip administration expressed as median survival time of drug treated mice/median survival time of control mice x100
[12] = tested on: Mus musculus; assay: In vivo antitumor activity against P-388 leukemia in CDF1 mice at 16 mg or 41 umol by ip administration expressed as average wt. change determined between day 0 and day 6 of experiment
[13] = tested on: Mus musculus; assay: In vivo antitumor activity against P-388 leukemia in CDF1 mice at 400 mg or 1453 umol by ip administration expressed as average wt. change determined between day 0 and day 6 of experiment
[14] = tested on: Mus musculus; assay: In vivo antitumor activity against P-388 leukemia in CDF1 mice at 200 mg or 727 umol by ip administration expressed as average wt. change determined between day 0 and day 6 of experiment
[15] = tested on: Mus musculus; assay: In vivo antitumor activity against P-388 leukemia in CDF1 mice at 50 mg or 182 umol by ip administration expressed as median survival time of drug treated mice/median survival time of control mice x100
[16] = tested on: Mus musculus; assay: In vivo antitumor activity against P-388 leukemia in CDF1 mice at 400 mg or 1453 umol by ip administration expressed as median survival time of drug treated mice/median survival time of control mice x100
[17] = tested on: Mus musculus; assay: In vivo antitumor activity against P-388 leukemia in CDF1 mice at 200 mg or 727 umol by ip administration expressed as median survival time of drug treated mice/median survival time of control mice x100
[18] = tested on: Mus musculus; assay: In vivo antitumor activity against P-388 leukemia in CDF1 mice at 100 mg or 363 umol by ip administration expressed as median survival time of drug treated mice/median survival time of control mice x100
[19] = tested on: Mus musculus; assay: In vivo antitumor activity against P-388 leukemia in CDF1 mice at 50 mg or 182 umol by ip administration expressed as average wt. change determined between day 0 and day 6 of experiment
[20] = tested on: Mus musculus; assay: In vivo antitumor activity against P-388 leukemia in CDF1 mice at 100 mg or 363 umol by ip administration expressed as average wt. change determined between day 0 and day 6 of experiment
[21] = tested on: Mus musculus; assay: effect of drug treatment in combination with gamma radiation on P-388 leukemia in mice at 120 mg/kg and 400R expressed as median survival time of drug treated mice/median survival time of control mice x100
[22] = tested on: Mus musculus; assay: In vivo antitumor activity against P-388 leukemia in CDF1 mice at 200 mg or 861 umol by ip administration expressed as average wt. change determined between day 0 and day 6 of experiment
[23] = tested on: Mus musculus; assay: effect of drug treatment in combination with gamma radiation on P-388 leukemia in mice at 120 mg/kg and 0R expressed as average weight change
[24] = tested on: Mus musculus; assay: effect of drug treatment in combination with gamma radiation on P-388 leukemia in mice at 120 mg/kg and 0R expressed as median survival time of drug treated mice/median survival time of control mice x100
[25] = tested on: Mus musculus; assay: In vivo antitumor activity against P-388 leukemia in CDF1 mice at 100 mg or 430 umol by ip administration expressed as median survival time of drug treated mice/median survival time of control mice x100
[26] = tested on: Mus musculus; assay: In vivo antitumor activity against P-388 leukemia in CDF1 mice at 200 mg or 861 umol by ip administration expressed as median survival time of drug treated mice/median survival time of control mice x100
[27] = tested on: Mus musculus; assay: effect of drug treatment in combination with gamma radiation on P-388 leukemia in mice at 120 mg/kg and 200R expressed as median survival time of drug treated mice/median survival time of control mice x100
[28] = tested on: Mus musculus; assay: In vivo antitumor activity against P-388 leukemia in CDF1 mice at 100 mg or 430 umol by ip administration expressed as average wt. change determined between day 0 and day 6 of experiment
[29] = tested on: Mus musculus; assay: effect of drug treatment in combination with gamma radiation on P-388 leukemia in mice at 120 mg/kg and 600R expressed as average weight change
[30] = tested on: Mus musculus; assay: effect of drug treatment in combination with gamma radiation on P-388 leukemia in mice at 120 mg/kg and 400R expressed as average weight change
[31] = tested on: Mus musculus; assay: effect of drug treatment in combination with gamma radiation on P-388 leukemia in mice at 120 mg/kg and 200R expressed as average weight change
[32] = tested on: Mus musculus; assay: effect of drug treatment in combination with gamma radiation on P-388 leukemia in mice at 120 mg/kg and 600R expressed as median survival time of drug treated mice/median survival time of control mice x100

SMILES: COCC(Cn1ccnc1[N+](=O)[O-])OP(=O)(N1CC1(C)C)N1CC1(C)C (configuration not stated)
- T/C [1]: 200%
- T/C [2]: 122%
- T/C [3]: 150%
- T/C [4]: 100%
- Average weight change [5]: 1.2 g
- Average weight change [6]: 0.2 g
- T/C [7]: 133%
- Average weight change [8]: -0.3 g
- Average weight change [9]: 0.4 g
- Average weight change [10]: -1.5 g
- T/C [11]: 106%
- Average weight change [12]: 0.8 g

SMILES: CCOC(=O)NP(=O)(N1CC1(C)C)N1CC1(C)C (configuration not stated) [METUREDEPA]
- Average weight change [13]: -1.3 g
- Average weight change [14]: -0.2 g
- T/C [15]: 163%
- T/C [16]: 244%
- T/C [17]: 231%
- T/C [18]: 181%
- Average weight change [19]: -0.7 g
- Average weight change [20]: -0.4 g

SMILES: CCOP(=O)(N1CC1(C)C)N1CC1(C)C (configuration not stated)
- T/C [21]: 160%
- Average weight change [22]: -5.2 g
- Average weight change [23]: 0.83 g
- T/C [24]: 400%
- T/C [25]: 289%
- T/C [26]: 433%
- T/C [27]: 250%
- Average weight change [28]: -2.6 g
- Average weight change [29]: -3.58 g
- Average weight change [30]: -0.93 g
- Average weight change [31]: 0.33 g
- T/C [32]: 80%
